# In patent US20180140609A1, “USE OF (4-HYDROXY-2-METHYL-1,1-DIOXIDO-2H-BENZO[E][1,2]THIAZINE-3-YL)(NAPHTHALENE-2-YL) METHANONE IN THE PREVENTION AND/OR TREATMENT OF NON-ALCOHOLIC STEATOHEPATITIS” (PIERRE FABRE MEDICAMENT, priority 2015, published 2018):
# Target: T1, human 11β-HSD 1 (Homo sapiens, UniProt P28845)
# T1 construct: evaluated on primary human adipocytes in culture (ZenBio); host or cells: primary human preadipocytes differentiated into adipocytes, from three donors
# Assay: Inhibition of human 11β-HSD 1 in primary human differentiated adipocytes in culture (cortisone to cortisol, SPA)
# Assay type: cell-based
# Protocol: Inhibition of human 11β-HSD 1 enzyme is evaluated on primary human adipocytes in culture (ZenBio).
# Preadipocytes are thawed and their viability is confirmed. The preadipocytes are then placed in 96-well microplates in a specific preadipocyte medium (PM-1) provided by ZenBio; the plates are incubated at 37° C. with 5% CO2. One day or more after the cells are confluent, PM-1 is replaced with a more specific differentiation medium (DM), also provided by ZenBio, containing isobutylmethylxanthine, insulin, dexamethasone and a PPAR agonist. The cells will differentiate into adipocytes after a minimum of 7 days. Next, the mature adipocytes are maintained for 4 to 6 days in adipocyte maintenance medium (AM). Then, in the presence of serum treated with dextran-coated charcoal, the cells are placed in steroid-deficient conditions for 48 h, and are pretreated with the inhibitors to be tested or their carrier (0.1% DMSO) for 1 h at 37° C. before the pulse with cortisone. Tritiated cortisone is added for 4 hours to reach a final concentration of 20 nM. The cortisol concentration is quantified from the cell supernatant using SPA technology. EC50 values are obtained with the SigmaPlot v.11 software, four parameter logistic equation; the reported values come from three different experiments carried out on three different donors.
# T1 sequence (P28845 whole entry): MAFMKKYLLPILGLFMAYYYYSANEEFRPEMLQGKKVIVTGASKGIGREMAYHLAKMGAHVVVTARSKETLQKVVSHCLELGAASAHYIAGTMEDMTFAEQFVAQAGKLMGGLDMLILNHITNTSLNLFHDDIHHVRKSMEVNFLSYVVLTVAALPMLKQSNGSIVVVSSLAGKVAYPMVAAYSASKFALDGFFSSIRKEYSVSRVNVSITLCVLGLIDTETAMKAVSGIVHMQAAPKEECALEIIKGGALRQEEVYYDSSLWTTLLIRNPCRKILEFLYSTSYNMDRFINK
structure (smiles),measurement,setting,value
"CN1C(C(=O)c2ccc3ccccc3c2)=C([O-])c2ccccc2S1(=O)=O.[K+] [Compound 1K, potassium 3-(2-naphthoyl)-2-methyl-2H-benzo[e][1,2]thiazin-4-olate 1,1-dioxide]",Emax (% inhibition at 10 μM),10 μM,97 % inhibition
same,EC50,"1 h pretreatment, 20 nM tritiated cortisone 4 h, three donors",58 nM
